# Assay results as given in patent publication EP3717657B1, “A SYSTEM FOR ASSESSING MICROBIAL SUSCEPTIBILITY TO ANTIBIOTIC AGENTS” (Ascilion AB, priority 2017, dated 2019).
# Legend:
# [1] = tested on: Escherichia coli ATCC 25922; settings: E.coli, cited from earlier work
# [2] = tested on: Staphylococcus aureus ATCC 29213; settings: S.aureus, cited from earlier work
# [3] = tested on: Enterococcus faecalis ATCC 29212; settings: E.faecalis, cited from earlier work
# S. aureus = experiment: Qualitative susceptibility by glucose consumption, bacteria from plated cultures (Example 2, Table 6); format: cell-based
# Description: If the susceptibility score is a qualitative susceptibility score classifying the microorganism as "susceptible", or "non-susceptible" to an antibiotic agent the answer could be given in as little as 1 hour.
# (§1) Bacteria from plated cultures were suspended in cation adjusted Mueller-Hinton broth (SVA, Uppsala, Sweden) supplemented with glucose. Consequently, the concentration of microorgansims was typically two orders of magnitude higher as compared to Example 1. […] The tested microorganisms was one strain of E. faecium, two strains of E.coli and one S. aureus. Table 6. "--" denotes no measurement
# E. faecium [4] = experiment: Qualitative susceptibility by glucose consumption, directly from positive BC-bottles (Example 2, Table 7); format: cell-based
# Description: With slightly lower microbe concentrations e.g. directly from positive BC-bottles (^~10^9 CFU/ml) the results are shown at least within 2 hours, where E. coli ATCC 25922 is classified as susceptible and E. faecium is non-susceptible. Table 7. "--" denotes no measurement
# [5] = tested on: Enterococcus faecalis (ATCC 29212); experiment: Antibiotic susceptibility by glucose consumption in culture medium, blood culture bottle inoculum (Example 1); format: cell-based; settings: for Glucose concentration t=0: 0 minutes; for Glucose concentration t=60: 60 minutes; for Glucose concentration t=120: 120 minutes; for Glucose concentration t=180: 180 minutes; for dC/dT: rate of change in glucose concentration; for Glucose concentration t=240: 240 minutes;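 on dC/dT: rate calculated between the 60 and 180 min readings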
# Procedure, shortened: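 Bacteria grown in blood culture bottles until positive, diluted 1:100 into cation-adjusted Mueller-Hinton broth with glucose at 1.0 mg/mL plus antibiotic (µg/mL). Glucose read by glucometer at 0–240 min.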
# E. coli ATCC 25922 [6] = experiment: Qualitative susceptibility by glucose consumption, bacteria from plated cultures (Example 2, Table 6); format: cell-based
# Description: as §1, with “If the susceptibility score is a qualitative susceptibility score classifying the microorganism as "susceptible", or "non-susceptible" to an antibiotic agent the answer could be given in as little as 1 hour. Bacteria” for “Bacteria”
# E. faecium [7] = experiment: as above; format: cell-based
# Description: as §1, with “If the susceptibility score is a qualitative susceptibility score classifying the microorganism as "susceptible", or "non-susceptible" to an antibiotic agent the answer could be given in as little as 1 hour. Bacteria” for “Bacteria”
# E. coli 17 = experiment: as above; format: cell-based
# Description: as §1, with “If the susceptibility score is a qualitative susceptibility score classifying the microorganism as "susceptible", or "non-susceptible" to an antibiotic agent the answer could be given in as little as 1 hour. Bacteria” for “Bacteria”
# E. coli ATCC 25922 [8] = experiment: Qualitative susceptibility by glucose consumption, directly from positive BC-bottles (Example 2, Table 7); format: cell-based
# [9] = range obtained by EUCAST from ISO 20776-1: 2006
# [10] = reference MIC value, EUCAST QC tables Version 7.0, 2017
substance,measurement,setting,value
Gentamicin,"MIC EUCAST, range in parentheses",[1]; [9],0.25 to 1 µg/mL
same,MIC EUCAST,[1]; [10],0.5 µg/mL
same,"MIC EUCAST, range in parentheses",[2]; [9],0.125 to 1 µg/mL
same,MIC EUCAST,[2]; [10],0.25 to 0.5 µg/mL
same,"MIC EUCAST, range in parentheses",[3]; [9],4 to 16 µg/mL
same,MIC EUCAST,[3]; [10],8 µg/mL
same,Qualitative susceptibility score,"S. aureus; S. aureus, 256 µg/mL, plated cultures, Table 6",susceptible
same,Glucose concentration t=15,"S. aureus; [Ab] 256 µg/mL, t=15",137
same,Glucose concentration t=30,"S. aureus; [Ab] 256 µg/mL, t=30",139
same,Glucose concentration t=45,"S. aureus; [Ab] 256 µg/mL, t=45",131
same,Qualitative susceptibility score,"E. faecium [4]; E. faecium, 256 µg/mL, from positive BC-bottles, within 2 hours, Table 7",non-susceptible
same,Glucose concentration t=0,"E. faecium [4]; [Ab] 256 µg/mL, t=0",144
same,Glucose concentration t=45,"E. faecium [4]; [Ab] 256 µg/mL, t=45",105
same,Glucose concentration t=60,"E. faecium [4]; [Ab] 256 µg/mL, t=60",77
same,Glucose concentration t=75,"E. faecium [4]; [Ab] 256 µg/mL, t=75",47
same,MIC Measured,"[5]; E.faecalis, 80% threshold of rate of change vs reference, between 60 and 180 minutes, obtained in 4 hours",2 µg/mL
same,F=the rate of change in glucose concentration in relation to the reference,"[5]; [Ab] 0,5 µg/mL",148%
same,Glucose concentration t=0,"[5]; [Ab] 0,5 µg/mL",146
same,Glucose concentration t=60,"[5]; [Ab] 0,5 µg/mL",160
same,Glucose concentration t=120,"[5]; [Ab] 0,5 µg/mL",138
same,Glucose concentration t=180,"[5]; [Ab] 0,5 µg/mL",97
same,dC/dT,"[5]; [Ab] 0,5 µg/mL",53
same,F=the rate of change in glucose concentration in relation to the reference,"[5]; [Ab] 0,25 µg/mL",144%
same,Glucose concentration t=0,"[5]; [Ab] 0,25 µg/mL",142
same,Glucose concentration t=60,"[5]; [Ab] 0,25 µg/mL",156
same,Glucose concentration t=120,"[5]; [Ab] 0,25 µg/mL",143
same,Glucose concentration t=180,"[5]; [Ab] 0,25 µg/mL",87
same,dC/dT,"[5]; [Ab] 0,25 µg/mL",52
same,F=the rate of change in glucose concentration in relation to the reference,[5]; [Ab] 1 µg/mL,106%
same,Glucose concentration t=0,[5]; [Ab] 1 µg/mL,145
same,Glucose concentration t=60,[5]; [Ab] 1 µg/mL,150
same,Glucose concentration t=120,[5]; [Ab] 1 µg/mL,138
same,Glucose concentration t=180,[5]; [Ab] 1 µg/mL,100
same,Glucose concentration t=240,[5]; [Ab] 1 µg/mL,36
same,dC/dT,[5]; [Ab] 1 µg/mL,38
same,F=the rate of change in glucose concentration in relation to the reference,[5]; [Ab] 2 µg/mL,75%
same,Glucose concentration t=0,[5]; [Ab] 2 µg/mL,147
same,Glucose concentration t=60,[5]; [Ab] 2 µg/mL,156
same,Glucose concentration t=120,[5]; [Ab] 2 µg/mL,143
same,Glucose concentration t=180,[5]; [Ab] 2 µg/mL,110
same,Glucose concentration t=240,[5]; [Ab] 2 µg/mL,75
same,dC/dT,[5]; [Ab] 2 µg/mL,27
same,F=the rate of change in glucose concentration in relation to the reference,[5]; [Ab] 4 µg/mL,46%
same,Glucose concentration t=0,[5]; [Ab] 4 µg/mL,147
same,Glucose concentration t=60,[5]; [Ab] 4 µg/mL,154
same,Glucose concentration t=120,[5]; [Ab] 4 µg/mL,151
same,Glucose concentration t=180,[5]; [Ab] 4 µg/mL,118
same,Glucose concentration t=240,[5]; [Ab] 4 µg/mL,104
same,dC/dT,[5]; [Ab] 4 µg/mL,17
same,F=the rate of change in glucose concentration in relation to the reference,[5]; [Ab] 8 µg/mL,14%
same,Glucose concentration t=0,[5]; [Ab] 8 µg/mL,143
same,Glucose concentration t=60,[5]; [Ab] 8 µg/mL,155
same,Glucose concentration t=120,[5]; [Ab] 8 µg/mL,134
same,Glucose concentration t=180,[5]; [Ab] 8 µg/mL,136
same,Glucose concentration t=240,[5]; [Ab] 8 µg/mL,140
same,dC/dT,[5]; [Ab] 8 µg/mL,5
same,F=the rate of change in glucose concentration in relation to the reference,[5]; [Ab] 16 µg/mL,18%
same,Glucose concentration t=0,[5]; [Ab] 16 µg/mL,147
same,Glucose concentration t=60,[5]; [Ab] 16 µg/mL,160
same,Glucose concentration t=120,[5]; [Ab] 16 µg/mL,152
same,Glucose concentration t=180,[5]; [Ab] 16 µg/mL,155
same,dC/dT,[5]; [Ab] 16 µg/mL,6
same,F=the rate of change in glucose concentration in relation to the reference,[5]; [Ab] 32 µg/mL,3%
same,Glucose concentration t=0,[5]; [Ab] 32 µg/mL,143
same,Glucose concentration t=60,[5]; [Ab] 32 µg/mL,151
same,Glucose concentration t=180,[5]; [Ab] 32 µg/mL,142
same,Glucose concentration t=240,[5]; [Ab] 32 µg/mL,148
same,dC/dT,[5]; [Ab] 32 µg/mL,1
same,Qualitative susceptibility score,"E. coli ATCC 25922 [6]; E. coli ATCC 25922, 256 µg/mL, plated cultures, Table 6",susceptible
same,Glucose concentration t=15,"E. coli ATCC 25922 [6]; [Ab] 256 µg/mL, t=15",156
same,Glucose concentration t=30,"E. coli ATCC 25922 [6]; [Ab] 256 µg/mL, t=30",155
same,Glucose concentration t=45,"E. coli ATCC 25922 [6]; [Ab] 256 µg/mL, t=45",136
same,Qualitative susceptibility score,"E. faecium [7]; E. faecium, 256 µg/mL, plated cultures, Table 6",non-susceptible
same,Glucose concentration t=0,"E. faecium [7]; [Ab] 256 µg/mL, t=0",79
same,Glucose concentration t=15,"E. faecium [7]; [Ab] 256 µg/mL, t=15",47
same,Qualitative susceptibility score,"E. coli 17; E. coli 17, 256 µg/mL, plated cultures, Table 6",susceptible
same,Glucose concentration t=15,"E. coli 17; [Ab] 256 µg/mL, t=15",131
same,Glucose concentration t=30,"E. coli 17; [Ab] 256 µg/mL, t=30",126
same,Glucose concentration t=45,"E. coli 17; [Ab] 256 µg/mL, t=45",123
same,Qualitative susceptibility score,"E. coli ATCC 25922 [8]; E. coli ATCC 25922, 256 µg/mL, from positive BC-bottles, within 2 hours, Table 7",susceptible
same,Glucose concentration t=0,"E. coli ATCC 25922 [8]; [Ab] 256 µg/mL, t=0",145
same,Glucose concentration t=45,"E. coli ATCC 25922 [8]; [Ab] 256 µg/mL, t=45",155
same,Glucose concentration t=60,"E. coli ATCC 25922 [8]; [Ab] 256 µg/mL, t=60",151
same,Glucose concentration t=90,"E. coli ATCC 25922 [8]; [Ab] 256 µg/mL, t=90",140
same,Glucose concentration t=105,"E. coli ATCC 25922 [8]; [Ab] 256 µg/mL, t=105",135
